Measured values from patent US8173638B2 (Boehringer Ingelheim International GmbH, priority 2006, dated 2012).

Biological target: T1, human CB2R (Homo sapiens, UniProt P34972)
T1 construct: host or cells: CHO cells
Assay: CB2R mediated modulation of cAMP synthesis
Assay type: cell-based
Conditions: for agonistic activity: found through the use of the described assays (CB2 agonists), qualitative statement; for Emax: 0.5 h, CHO cells expressing human CB2R, cAMP inhibited by 1 uM CP55940 defined as 100%, read-out: Agonist Efficacy (%); for EC50: read-out: hCB2 cAMP EC50
Description: B. CB2R Mediated Modulation of cAMP Synthesis:
CHO cells expressing human CB2R (Euroscreen) were plated at a density of 5000 cells per well in 384 well plates and incubated overnight at 37° C. After removing the media, the cells were treated with test compounds diluted in stimulation buffer containing 1 mM IBMX, 0.25% BSA and 10 uM Forskolin. The assay was incubated for 30 minutes at 37° C. Cells were lysed and the cAMP concentration was measured using DiscoverX-XS cAMP kit, following the manufacturer's protocol. In this setting, agonists will decrease forskolin induced production of cAMP while inverse agonists will further increase forskolin induced production of cAMP. EC50 of agonists were calculated as follows. The maximal amount of cAMP produced by forskolin compared to the level of cAMP inhibited by 1 uM CP55940 is defined as 100%. […] Data was analyzed using a four-parameter logistic model. (Model 205 of XLfit 4.0).

T1 sequence (P34972 whole entry): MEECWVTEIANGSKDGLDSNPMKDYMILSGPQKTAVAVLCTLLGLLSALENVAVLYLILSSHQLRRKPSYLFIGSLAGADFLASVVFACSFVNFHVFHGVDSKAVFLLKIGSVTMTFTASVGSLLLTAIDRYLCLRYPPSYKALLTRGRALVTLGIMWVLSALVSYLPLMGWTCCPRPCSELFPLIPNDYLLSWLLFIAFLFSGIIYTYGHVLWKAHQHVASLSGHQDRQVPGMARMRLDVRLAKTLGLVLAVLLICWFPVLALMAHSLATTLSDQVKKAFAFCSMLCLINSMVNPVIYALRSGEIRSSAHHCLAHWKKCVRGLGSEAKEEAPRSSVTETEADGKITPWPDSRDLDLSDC

SMILES | agonistic activity | Emax [%] | EC50 [nM]
CC(C)c1ccc(NC(=O)N2CCCN(C(=O)c3ccc(Cl)cc3)CC2)cc1 [4-(4-Chloro-benzoyl)-[1,4]diazepane-1-carboxylic acid (4-isopropyl-phenyl)-amide] | agonistic activity |  | 
O=C(Nc1ccc2ccccc2c1)N1CCCN(C(=O)c2ccc(Cl)cc2)CC1 [Compound 79, 4-(4-Chloro-benzoyl)-[1,4]diazepane-1-carboxylic acid naphthalen-2-ylamide] |  | 100 | 46
O=C(Nc1nc2c(s1)CCCC2)N1CCCN(C(=O)c2ccc(Cl)cc2)CC1 [4-(4-Chloro-benzoyl)-[1,4]diazepane-1-carboxylic acid (4,5,6,7-tetrahydro-benzothiazol-2-yl)-amide] | agonistic activity |  | 
CC(C)CCC(=O)N1CCCN(C(=O)Nc2ccc3ccccc3c2)CC1 [Compound 94, 4-(4-Methyl-pentanoyl)-[1,4]diazepane-1-carboxylic acid naphthalen-2-ylamide] |  | 98 | 89
O=C(CC1CCCC1)N1CCCN(C(=O)Nc2cc(Cl)cc(Cl)c2)CC1 [4-(2-Cyclopentyl-acetyl)-[1,4]diazepane-1-carboxylic acid (3,5-dichloro-phenyl)-amide] | agonistic activity |  | 
O=C(Nc1ccc(Cl)c(Cl)c1)N1CCCN(C(=O)c2ccc(Cl)cc2)CC1 [4-(4-Chloro-benzoyl)-[1,4]diazepane-1-carboxylic acid (3,4-dichloro-phenyl)-amide] | agonistic activity |  | 
O=C(CCC1CCCC1)N1CCCN(C(=O)NCC2CCCCC2)CC1 [4-(3-Cyclopentyl-propionyl)-[1,4]diazepane-1-carboxylic acid cyclohexylmethyl-amide] | agonistic activity |  | 
O=C(Nc1ccc2ccccc2c1)N1CCCN(C(=O)C2CCCCC2)CC1 [Compound 68, 4-Cyclohexanecarbonyl-[1,4]diazepane-1-carboxylic acid naphthalen-2-ylamide] |  | 99 | 26
N#Cc1ccc(NC(=O)N2CCCN(C(=O)CCC3CCCC3)CC2)cc1 [4-(3-Cyclopentyl-propionyl)-[1,4]diazepane-1-carboxylic acid (4-cyano-phenyl)-amide] | agonistic activity |  | 
CC(C)(C)c1ccc(NC(=O)N2CCCN(C(=O)c3ccc(Cl)c(Cl)c3)CC2)cc1 [Compound 110, 4-(3,4-Dichloro-benzoyl)-[1,4]diazepane-1-carboxylic acid (4-tert-butyl-phenyl)-amide] |  | 97 | 64
CCCCCc1ccc(NC(=O)N2CCCN(C(=O)CC3CCCC3)CC2)cc1 [Compound 49, 4-(2-Cyclopentyl-acetyl)-[1,4]diazepane-1-carboxylic acid (4-n-pentyl-phenyl)-amide] |  | 73 | 48
CC(C)c1ccc(NC(=O)N2CCCN(C(=O)c3cccc(Cl)c3)CC2)cc1 [4-(3-Chloro-benzoyl)-[1,4]diazepane-1-carboxylic acid (4-isopropyl-phenyl)-amide] | agonistic activity |  | 
Cn1nc(-c2ccccc2)cc1NC(=O)N1CCCN(C(=O)C2CCOCC2)CC1 [4-(Tetrahydro-pyran-4-carbonyl)-[1,4]diazepane-1-carboxylic acid (2-methyl-5-phenyl-2H-pyrazol-3-yl)-amide] | agonistic activity |  | 
O=C(Nc1nc2c(s1)CCCC2)N1CCCN(C(=O)C2CCOCC2)CC1 [4-(Tetrahydro-pyran-4-carbonyl)-[1,4]diazepane-1-carboxylic acid (4,5,6,7-tetrahydro-benzothiazol-2-yl)-amide] | agonistic activity |  | 
CC(C)c1ccc(NC(=S)N2CCCN(C(=O)CC3CCCC3)CC2)cc1 [4-(2-Cyclopentyl-acetyl)-[1,4]diazepane-1-carbothioic acid (4-isopropyl-phenyl)-amide] | agonistic activity |  | 
O=C(CC1CCCC1)N1CCCN(C(=O)Nc2ccc3c(c2)OC(F)(F)O3)CC1 [4-(2-Cyclopentyl-acetyl)-[1,4]diazepane-1-carboxylic acid (2,2-difluoro-benzo[1,3]dioxol-5-yl)-amide] | agonistic activity |  | 
CC(C)c1ccc(NC(=O)N2CCCN(C(=O)c3ccccc3)CC2)cc1 [4-Benzoyl-[1,4]diazepane-1-carboxylic acid (4-isopropyl-phenyl)-amide] | agonistic activity |  | 
N#Cc1ccc(C(=O)N2CCCN(C(=O)Nc3ccc4ccccc4c3)CC2)cc1 [4-(4-Cyano-benzoyl)-[1,4]diazepane-1-carboxylic acid naphthalen-2-ylamide] | agonistic activity |  | 
O=C(CC1CCCCC1)N1CCCN(C(=O)Nc2ccc3ccccc3c2)CC1 [4-(2-Cyclohexyl-acetyl)-[1,4]diazepane-1-carboxylic acid (2-naphthyl)-amide] | agonistic activity |  | 
CCCCc1ccc(NC(=O)N2CCCN(C(=O)CCC(C)C)CC2)cc1 [4-(4-Methyl-pentanoyl)-[1,4]diazepane-1-carboxylic acid (4-butyl-phenyl)-amide] | agonistic activity |  | 
O=C(CC1CCCC1)N1CCCN(C(=O)Nc2ccc(SC(F)(F)F)cc2)CC1 [Compound 82, 4-(2-cyclopentyl-acetyl)-[1,4]diazepane-1-carboxylic acid (4-trifluoromethylsulfanyl-phenyl)-amide] |  | 92 | 36
CC(C)c1ccc(NC(=O)N2CCCN(C(=O)CC3CCCCC3)CC2)cc1 [Compound 36, 4-(2-Cyclohexyl-acetyl)-[1,4]diazepane-1-carboxylic acid (4-isopropyl-phenyl)-amide] |  | 95 | 29
CCCCc1ccc(NC(=O)N2CCCN(C(=O)CC3CCOCC3)CC2)cc1 [4-(2-Tetrahydro-pyran-4-yl-acetyl)-[1,4]diazepane-1-carboxylic acid (4-butyl-phenyl)-amide] | agonistic activity |  | 
O=C(CCC1CC1)N1CCCN(C(=O)Nc2ccc3ccccc3c2)CC1 [4-(3-Cyclopropyl-propionyl)-[1,4]diazepane-1-carboxylic acid naphthalen-2-ylamide] | agonistic activity |  | 
CC(C)(C)c1ccc(NC(=O)N2CCCN(C(=O)CC3CCCC3)CC2)cc1 [4-(2-Cyclopentyl-acetyl)-[1,4]diazepane-1-carboxylic acid (4-tert-butyl-phenyl)-amide] | agonistic activity |  | 

Other lines, results leading:

agonistic activity | Emax [%] | EC50 [nM] | SMILES
agonistic activity |  |  | CC(C)(C)c1cc(NC(=O)N2CCCN(C(=O)C3CCC(NS(C)(=O)=O)CC3)CC2)no1 (stereo not shown) [4-(4-Methanesulfonylamino-cyclohexanecarbonyl)-[1,4]diazepane-1-carboxylic acid (5-tert-butyl-isoxazol-3-yl)-amide]
agonistic activity |  |  | CC(C)(C)c1cc(NC(=O)N2CCCN(C(=O)Nc3ccccc3)CC2)no1
agonistic activity |  |  | CC(C)(C)c1cc(NC(=O)N2CCCN(C(=O)CC3CCCO3)CC2)no1 (stereo not shown) [4-(2-Tetrahydro-furan-2-yl-acetyl)-[1,4]diazepane-1-carboxylic acid (5-tert-butyl-isoxazol-3-yl)-amide]
agonistic activity |  |  | CC(C)(C)c1cc(NC(=O)N2CCCN(C(=O)N3CCS(=O)(=O)CC3)CC2)on1 [4-(1,1-Dioxo-1λ^6-thiomorpholine-4-carbonyl)-[1,4]diazepane-1-carboxylic acid (3-tert-butyl-isoxazol-5-yl)-amide]
 | 91 | 58 | Cc1sc(NC(=O)N2CCCN(C(=O)C3CCOCC3)CC2)nc1C(C)(C)C [Compound 186, 4-(Tetrahydro-pyran-4-carbonyl)-[1,4]diazepane-1-carboxylic acid (4-tert-butyl-5-methyl-thiazol-2-yl)-amide]
agonistic activity |  |  | CCC(C)c1ccc(NC(=O)N2CCCN(C(=O)C3CCOCC3)CC2)nc1 (stereo not shown) [4-(Tetrahydro-pyran-4-carbonyl)-[1,4]diazepane-1-carboxylic acid (5-sec-butyl-pyridin-2-yl)-amide]
 | 107 | 68 | CC(=O)NC1CCC(C(=O)N2CCCN(C(=O)Nc3cc(C(C)(C)C)on3)CC2)CC1 (stereo not shown) [Compound 160, 4-(4-Acetylamino-cyclohexanecarbonyl)-[1,4]diazepane-1-carboxylic acid (5-tert-butyl-isoxazol-3-yl)-amide]
agonistic activity |  |  | CCc1ccnc(NC(=O)N2CCCN(C(=O)C3CCOCC3)CC2)c1 [4-(Tetrahydro-pyran-4-carbonyl)-[1,4]diazepane-1-carboxylic acid (4-ethyl-pyridin-2-yl)-amide]
agonistic activity |  |  | Cc1csc(NC(=O)N2CCCN(C(=O)C3CCOCC3)CC2)n1 [4-(Tetrahydro-pyran-4-carbonyl)-[1,4]diazepane-1-carboxylic acid (4-methyl-thiazol-2-yl)-amide]
 | 100 | 18 | Cc1nc(NC(=O)N2CCCN(C(=O)C3CCOCC3)CC2)sc1C(C)(C)C [Compound 183, 4-(Tetrahydro-pyran-4-carbonyl)-[1,4]diazepane-1-carboxylic acid (5-tert-butyl-4-methyl-thiazol-2-yl)-amide]
agonistic activity |  |  | O=C(Nc1cnc2ccccc2c1)N1CCCN(C(=O)C2CCOCC2)CC1 [4-(Tetrahydro-pyran-4-carbonyl)-[1,4]diazepane-1-carboxylic acid quinolin-3-ylamide]
